Legend:
Assay in all cases: relative viability (nuclei count vs DMSO), 5 days (fraction); higher = more cells survive
NCI-H1975 = system: NCI-H1975
In short: (§1)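 Relative viability was taken as the ratio of nuclei in treated wells to nuclei in vehicle wells. Lung cancer cell lines in 1536-well plates received compounds by pin tool one day after seeding, either one drug alone or a fixed anchor-drug dose plus five library-drug doses (not always all listed) in √10 steps. Nuclei were counted on 4× images after 5 days of treatment, and values are medians of duplicate plates.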

PC-3 [JPC-3] = system: PC-3 [JPC-3]
In short: as §1

NCI-H596 = system: NCI-H596
In short: as §1

NCI-H1666 = system: NCI-H1666
In short: as §1

NCI-H1792 = system: NCI-H1792
In short: as §1

NCI-H322M = system: NCI-H322M
In short: as §1

NCI-H23 = system: NCI-H23
In short: as §1

NCI-H727 = system: NCI-H727
In short: as §1

NCI-H441 = system: NCI-H441
In short: as §1

NCI-H647 = system: NCI-H647
In short: as §1

NCI-H2342 = system: NCI-H2342
In short: as §1

LCLC-97TM1 = system: LCLC-97TM1
In short: as §1

NCI-H838 = system: NCI-H838
In short: as §1

NCI-H358 = system: NCI-H358
In short: as §1

NCI-H522 = system: NCI-H522
In short: as §1

NCI-H1915 = system: NCI-H1915
In short: as §1

NCI-H1437 = system: NCI-H1437
In short: as §1

NCI-H460 = system: NCI-H460
In short: as §1

EKVX = system: EKVX
In short: as §1

CCNC(=O)c1noc(-c2cc(C(C)C)c(O)cc2O)c1-c1ccc(CN2CCOCC2)cc1 [Luminespib] + NC(=O)Nc1cc(-c2cccc(F)c2)sc1C(=O)N[C@H]1CCCNC1 [AZD7762] (partner 0.2 µM)
relative viability (NCI-H1975; first compound 0.002 µM): 0.686 | relative viability (NCI-H1975; first compound 0.006325 µM): 0.735 | relative viability (NCI-H1975; first compound 0.02 µM): 0.348 | relative viability (NCI-H1975; first compound 0.06325 µM): 0.167 | relative viability (NCI-H1975; first compound 0.2 µM): 0.165 | relative viability (PC-3 [JPC-3]; first compound 0.002 µM): 0.747 | relative viability (PC-3 [JPC-3]; first compound 0.006325 µM): 0.86 | relative viability (PC-3 [JPC-3]; first compound 0.02 µM): 0.492 | relative viability (PC-3 [JPC-3]; first compound 0.06325 µM): 0.319 | relative viability (PC-3 [JPC-3]; first compound 0.2 µM): 0.337 | relative viability (NCI-H596; first compound 0.002 µM): 1.11 | relative viability (NCI-H596; first compound 0.006325 µM): 1.17 | relative viability (NCI-H596; first compound 0.02 µM): 0.857 | relative viability (NCI-H596; first compound 0.06325 µM): 0.934 | relative viability (NCI-H596; first compound 0.2 µM): 0.879 | relative viability (NCI-H1666; first compound 0.002 µM): 0.828 | relative viability (NCI-H1666; first compound 0.006325 µM): 0.835 | relative viability (NCI-H1666; first compound 0.02 µM): 0.903 | relative viability (NCI-H1666; first compound 0.06325 µM): 0.78 | relative viability (NCI-H1666; first compound 0.2 µM): 0.589 | relative viability (NCI-H1792; first compound 0.002 µM): 0.797 | relative viability (NCI-H1792; first compound 0.006325 µM): 0.519 | relative viability (NCI-H1792; first compound 0.02 µM): 0.146 | relative viability (NCI-H1792; first compound 0.06325 µM): 0.0335 | relative viability (NCI-H1792; first compound 0.2 µM): 0.0361 | relative viability (NCI-H322M; first compound 0.002 µM): 0.585 | relative viability (NCI-H322M; first compound 0.006325 µM): 0.485 | relative viability (NCI-H322M; first compound 0.02 µM): 0.441 | relative viability (NCI-H322M; first compound 0.06325 µM): 0.376 | relative viability (NCI-H322M; first compound 0.2 µM): 0.391 | relative viability (NCI-H23; first compound 0.002 µM): 0.258 | relative viability (NCI-H23; first compound 0.006325 µM): 0.247 | relative viability (NCI-H23; first compound 0.02 µM): 0.259 | relative viability (NCI-H23; first compound 0.06325 µM): 0.133 | relative viability (NCI-H23; first compound 0.2 µM): 0.11 | relative viability (NCI-H727; first compound 0.002 µM): 0.53 | relative viability (NCI-H727; first compound 0.006325 µM): 0.493 | relative viability (NCI-H727; first compound 0.02 µM): 0.57 | relative viability (NCI-H727; first compound 0.06325 µM): 0.36 | relative viability (NCI-H727; first compound 0.2 µM): 0.323 | relative viability (NCI-H441; first compound 0.002 µM): 1.08 | relative viability (NCI-H441; first compound 0.006325 µM): 1.05 | relative viability (NCI-H441; first compound 0.02 µM): 1.18 | relative viability (NCI-H441; first compound 0.06325 µM): 0.308 | relative viability (NCI-H441; first compound 0.2 µM): 0.126 | relative viability (NCI-H647; first compound 0.002 µM): 0.506 | relative viability (NCI-H647; first compound 0.006325 µM): 0.538 | relative viability (NCI-H647; first compound 0.02 µM): 0.176 | relative viability (NCI-H647; first compound 0.06325 µM): 0.0596 | relative viability (NCI-H647; first compound 0.2 µM): 0.0506 | relative viability (NCI-H2342; first compound 0.002 µM): 0.472 | relative viability (NCI-H2342; first compound 0.006325 µM): 0.434 | relative viability (NCI-H2342; first compound 0.02 µM): 0.371 | relative viability (NCI-H2342; first compound 0.06325 µM): 0.492 | relative viability (NCI-H2342; first compound 0.2 µM): 0.26 | relative viability (LCLC-97TM1; first compound 0.002 µM): 0.251 | relative viability (LCLC-97TM1; first compound 0.006325 µM): 0.22 | relative viability (LCLC-97TM1; first compound 0.02 µM): 0.111 | relative viability (LCLC-97TM1; first compound 0.06325 µM): 0.167 | relative viability (LCLC-97TM1; first compound 0.2 µM): 0.0727 | relative viability (NCI-H838; first compound 0.002 µM): 0.994 | relative viability (NCI-H838; first compound 0.006325 µM): 0.89 | relative viability (NCI-H838; first compound 0.02 µM): 0.775 | relative viability (NCI-H838; first compound 0.06325 µM): 0.625 | relative viability (NCI-H838; first compound 0.2 µM): 0.597 | relative viability (NCI-H358; first compound 0.002 µM): 0.607 | relative viability (NCI-H358; first compound 0.006325 µM): 0.632 | relative viability (NCI-H358; first compound 0.02 µM): 0.316 | relative viability (NCI-H358; first compound 0.06325 µM): 0.14 | relative viability (NCI-H358; first compound 0.2 µM): 0.134 | relative viability (NCI-H522; first compound 0.002 µM): 0.866 | relative viability (NCI-H522; first compound 0.006325 µM): 0.93 | relative viability (NCI-H522; first compound 0.02 µM): 0.694 | relative viability (NCI-H522; first compound 0.06325 µM): 0.713 | relative viability (NCI-H522; first compound 0.2 µM): 0.353 | relative viability (NCI-H1915; first compound 0.002 µM): 0.662 | relative viability (NCI-H1915; first compound 0.006325 µM): 0.674 | relative viability (NCI-H1915; first compound 0.02 µM): 0.627 | relative viability (NCI-H1915; first compound 0.06325 µM): 0.473 | relative viability (NCI-H1915; first compound 0.2 µM): 0.0604 | relative viability (NCI-H1437; first compound 0.002 µM): 1.11 | relative viability (NCI-H1437; first compound 0.006325 µM): 1.04 | relative viability (NCI-H1437; first compound 0.02 µM): 1.15 | relative viability (NCI-H1437; first compound 0.06325 µM): 0.785 | relative viability (NCI-H1437; first compound 0.2 µM): 0.278 | relative viability (NCI-H460; first compound 0.002 µM): 0.679 | relative viability (NCI-H460; first compound 0.006325 µM): 0.628 | relative viability (NCI-H460; first compound 0.02 µM): 0.717 | relative viability (NCI-H460; first compound 0.06325 µM): 0.0326 | relative viability (NCI-H460; first compound 0.2 µM): 0.0406 | relative viability (EKVX; first compound 0.002 µM): 0.669 | relative viability (EKVX; first compound 0.006325 µM): 0.68 | relative viability (EKVX; first compound 0.02 µM): 0.475 | relative viability (EKVX; first compound 0.06325 µM): 0.239 | relative viability (EKVX; first compound 0.2 µM): 0.104

Source: the supplement of paper PMC10307832
